Assay results reported in US8168400B2, “Methods and kits for detection of thromboxane A2 metabolites” (Corgenix Medical Corporation, priority 2005, dated 2012).
Entries after “also recorded” stand apart in the source; their conditions may differ.

Columns and labels:
[1] = system: monoclonal antibodies of the present invention (anti-11 dhTxB2 / 11 dh2,3dTxB2 mAb); assay: Monoclonal antibody specificity: percent cross-reactivity (enzyme-based competition assay); format: binding, mouse; settings: for % Reactivity (cross reactivity): relative to 11 dh TxB2 = 100%
Experimental: The present invention provides a urinary 11dhTxB2 Competitive ELISA Assay. An illustrative standard curve was prepared (see FIG. 6) by spiking known amounts of 11dhTxB2 into low level urine diluted 1:5 in Tris assay buffer (0.1M Tris, 0.1% BSA) or into assay buffer alone. 100 μl of standards or actual samples (having taken known amounts of aspirin and diluted 1:5 in Tris assay buffer) was added to wells coated with goat anti-mouse antibody, followed by the addition of 50 μl of 11 dhTxB2-AP (alkaline phosphatase) tracer and 50 μl of 11 dhTxB2 mAb. The reactions were then allowed to incubate for a predetermined amount of time, typically with shaking at room temperature. In preferred embodiments the incubation is about two hours in length. Each well is then washed with a wash buffer and approximately 200 μl of substrate added (p-nitrophenyl-phosphate, pNPP). The reactions are then incubated again for approximately thirty minutes. A stop solution is added to each well, and the plate read for OD at 405 nm.
Antibody clones of the invention were tested to determine cross-reactivity against various Thromboxane A2 metabolites and other like compounds. Table 2 provides percent cross reactivity of antibodies of the present invention against these various compounds: […]

[2] = system: urinary 11dhTxB2 (TxA2 metabolites); assay: Urinary 11dhTxB2 competitive ELISA in subjects on aspirin; format: in vivo, human; settings: for urinary 11dhTxB2 per mg creatinine, average patient value: healthy no-aspirin average 1119 pg/mg
Experimental: The present invention provides a urinary 11dhTxB2 Competitive ELISA Assay. An illustrative standard curve was prepared (see FIG. 6) by spiking known amounts of 11dhTxB2 into low level urine diluted 1:5 in Tris assay buffer (0.1M Tris, 0.1% BSA) or into assay buffer alone. 100 μl of standards or actual samples (having taken known amounts of aspirin and diluted 1:5 in Tris assay buffer) was added to wells coated with goat anti-mouse antibody, followed by the addition of 50 μl of 11 dhTxB2-AP (alkaline phosphatase) tracer and 50 μl of 11 dhTxB2 mAb. The reactions were then allowed to incubate for a predetermined amount of time, typically with shaking at room temperature. In preferred embodiments the incubation is about two hours in length. Each well is then washed with a wash buffer and approximately 200 μl of substrate added (p-nitrophenyl-phosphate, pNPP). The reactions are then incubated again for approximately thirty minutes. A stop solution is added to each well, and the plate read for OD at 405 nm. Results from the assay provide for the amount of 11dhTxB2 and 11 dh2,3dTxB2 present in the sample (note that results are compared to the standard curve). The amount of the two metabolites present in the sample is indirectly proportional to the optical density read at 405 nm. For clinical samples, creatinine values are also obtained, and data from assays presented as pg metabolite/mg creatinine. Initially, 171 urine samples were taken from subjects either off aspirin or on 81 or 325 mg aspirin/day. TxA2 metabolite amounts were determined for each sample using the methods and kits of the present invention. Values were normalized for urinary dilution by dividing TxA2 metabolite amounts by creatinine concentrations. 354 urine samples from subjects either on or off aspirin therapy were run using the methods and kits of the present invention. Values were calculated and normalized for urinary dilution by dividing by creatinine concentration, and the frequency of each concentration was calculated and shown in a frequency plot, FIG. 5. Subjects on aspirin are plotted with solid bars and subjects not on aspirin are plotted using hatched bars. Positive samples are below 1500 pg/mg creatinine cutoff, whereas negative samples are those that are above the 1500 pg/mg creatinine cutoff. As shown in FIGS. 4-5, clinical data can be obtained using the above-described methods. […] The assay detection range was suitable for measurement of 11dhTxB2 in a population (62-3122 pg 11dhTxB2/mg creatinine—see FIG. 7). […] All three levels of aspirin doses are statistically significant when compared to the healthy, no aspirin controls.

platelet COX-1 = molecular target: T1, platelet COX-1 (Homo sapiens, UniProt P23219); settings: low dose aspirin; cited from earlier work
T1 construct: host or cells: platelets (in vivo, patients on low dose aspirin)

[3] = low dose aspirin; patients with arterial vascular disease; cited from earlier work
[4] = aspirin ingestion present, 354 urine samples in total

T1 sequence (P23219 24-599): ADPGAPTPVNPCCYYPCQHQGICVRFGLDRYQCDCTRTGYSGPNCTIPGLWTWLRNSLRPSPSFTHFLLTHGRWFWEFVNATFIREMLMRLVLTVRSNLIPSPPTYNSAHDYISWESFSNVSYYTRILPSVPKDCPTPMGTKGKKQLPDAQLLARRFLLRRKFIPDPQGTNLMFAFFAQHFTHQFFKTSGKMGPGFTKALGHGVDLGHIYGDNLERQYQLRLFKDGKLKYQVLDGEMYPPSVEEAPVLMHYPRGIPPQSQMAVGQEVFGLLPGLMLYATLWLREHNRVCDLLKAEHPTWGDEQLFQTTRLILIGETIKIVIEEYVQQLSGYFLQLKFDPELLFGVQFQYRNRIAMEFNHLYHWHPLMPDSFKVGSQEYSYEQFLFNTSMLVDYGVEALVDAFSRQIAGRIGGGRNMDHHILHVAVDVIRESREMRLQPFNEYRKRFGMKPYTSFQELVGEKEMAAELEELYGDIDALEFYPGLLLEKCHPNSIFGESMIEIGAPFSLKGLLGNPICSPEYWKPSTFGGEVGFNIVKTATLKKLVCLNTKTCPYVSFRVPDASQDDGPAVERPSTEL

Row | reactivity of the antibodies with the compound (in words) [1] | % Reactivity (cross reactivity) [1] [%] | SMILES | also measured
1 | unreactive | <0.01 | CCCCC[C@H](O)/C=C/[C@H]1[C@H](O)CC(=O)[C@@H]1C/C=C\CCCC(=O)O [PGE2] | 
2 | unreactive | <0.01 | CCCCC[C@H](O)/C=C/[C@@H]1[C@@H](CC(=O)CCCCC(=O)O)[C@@H](O)C[C@H]1O [6-keto PGF1a] | 
3 | unreactive | 0.05 | CCCCC[C@H](O)/C=C/[C@H]1OC(O)C[C@H](O)[C@@H]1C/C=C\CCCC(=O)O (stereo partly shown) [TxB2, thromboxane B2] | 

Further lines, the compound ahead of its results:

Row | SMILES | reactivity of the antibodies with the compound (in words) [1] | % Reactivity (cross reactivity) [1] [%] | also measured
4 | CCCCCC(O)C=CC1OC(=O)CC(O)C1CC=CCCCC(=O)O (stereo not shown) [11 dh TxB2, 11-dehydro Thromboxane B2] | react; also recorded: high reactivity | 100 | 
5 | O=C(O)CCCCC(=O)CCC1C(O)CC(O)C1CCC(=O)O (stereo not drawn) [2,3,4,5-tetranor-20-Carboxy 13,14-dihydro-15-keto PGF2α] | unreactive | <0.01 | 
6 | CC(=O)Oc1ccccc1C(=O)O [aspirin, acetyl salicylic acid] |  |  | urinary 11dhTxB2 per mg creatinine, average patient value ([2]; aspirin 81 mg/day): 418 pg/mg; urinary 11dhTxB2 per mg creatinine, average patient value ([2]; aspirin 162 mg/day): 471 pg/mg; urinary 11dhTxB2 per mg creatinine, average patient value ([2]; aspirin 325 mg/day): 377 pg/mg; number of urine samples Negative (>1500 pg/creatinine) [2, 4]: 16; number of urine samples Positive (<1500 pg/creatinine) [2, 4]: 251; block of platelet COX-1 activity (platelet COX-1): more than 95%; reduction of cardiovascular events [3]: ≤ 25%
7 | CCCCC[C@H](O)/C=C/[C@H]1C(=O)C[C@H](O)[C@@H]1C/C=C\CCCC(=O)O [PGD2] | unreactive | 0.2 | 
8 | CCCCC[C@H](O)/C=C/[C@H]1OC(O)C[C@H](O)[C@@H]1C/C=C\CC(=O)O (stereo partly shown) [2,3 dinor TxB2] | unreactive | 1.93 | 
9 | O=C(O)CCCCC(=O)CCC1C(O)CC(=O)C1CCC(=O)O (stereo not shown) [2,3,4,5-tetranor-20-Carboxy 13,14-dihydro-15-keto PGE2] | unreactive | <0.01 | 
10 | CCCCCC(O)C=CC1OC(=O)CC(O)C1CC=CCC(=O)O (stereo not shown) [11-dehydro-2,3 dinor thromboxane B2] | react; also recorded: high reactivity | 166 | 
